From publication PMC6977318, “In vitro and in situ study on characterization and mechanism of the intestinal absorption of 2,3,5,4′-tetrahydroxy-stilbene-2-O-β-D-glucoside” (BMC Pharmacology & Toxicology, 2020)

What was measured:
[1] = target: T1, MRP2 (Rattus norvegicus, UniProt Q63120); assay: Effect of MRP2 inhibitor on intestinal absorption of TSG, in situ perfusion; format: in vivo
T1 construct: from tissue; host or cells: rat small intestine, perfused in situ
Procedure: The perfusion was started with inhibitor solution at a flow rate of 2 mL·min^− 1, and after 30 min, it was replaced with TSG solution to investigate the influences of efflux proteins on TSG.
(§1) 1 mL sample was mixed with equal amount of methanol, filtered through a membrane filter (0.45 μm pore size), and centrifuged at 12000 r·min^− 1 for 10 min. […] The mobile phase consisted of (A) 0.1% formic acid water and (B) acetonitrile. The gradient elution was set as: linear gradient elution 20–35% B (0-15 min) with a flow rate of 1 mL·min^− 1. The injected sample volume was 5 μL. TSG was detected at wavelength of 320 nm and phenol red was detected at wavelength of 430 nm. The concentration of phenol red was used to correct the volume of intestinal circulating fluid. The concentration of TSG and the volume of intestinal circulating fluid in each time period was used to calculate the residual drug amount (X). With the sampling time t as independent variable and lnX as dependent variable, the absorption rate constant Ka was determined from the slope of the straight line. The drug absorption percentage were calculated by the ratio of the change value of the remaining dose of t (h) to the amount of the remaining drug at time 0.
(§2) The absorption rate constants (Ka) and percentage of absorption (PA, %) were calculated using the following eqs. (3), (4), respectively.
(§3) Where X was the residual drug amount, C0 was the drug concentration of intestinal circulation liquid at 0 min, V0 was the drug volume of intestinal circulation liquid at 0 min, Ct was the drug concentration of intestinal circulation liquid at t min, Vt was the drug volume of intestinal circulation liquid at t min, t was the perfusion time.

[2] = In situ single-pass intestinal perfusion of TSG in rats (Ka, PA); format: in vivo, rat
Procedure: The proper amount of TSG was accurately weighed, and the intestinal circulation liquid with a concentration of 10, 30 and 60 μg·mL^− 1 was prepared by using a blank intestinal circulation solution.
24 SD rats, half male and half female, were fasted for 12 h but permitted to drink water freely before surgery. Rats were anesthetized by intraperitoneal injection of 25% urethane ([…]) and placed in a supine position on the operating table. The abdominal cavity was opened along the midline of the abdomen, then the incision was made at the duodenum and the ileum. The polyethylene tubes were carefully inserted at both sides of the segment and ligatured with a sterile surgical line. The contents of the intestines were slowly rinsed with 0.9% saline, prewarmed at 37 °C, and the residual liquid in the intestine was drained with air. Afterward, the wound in the abdomen of the rats was covered with a gauze soaked with 37 °C 0.9% saline buffer to moisturize after the operation, warmed with infrared lamp. The intestinal was equilibrated with a drug-containing perfusate (the concentration of TSG was 10, 30 and 60 μg·mL^− 1 respectively) which was preheated at 37 °C at a flow rate of 5 mL·min^− 1. Samples were collected in EP tubes after 10 min, and blank intestinal circulation solution (1 mL) was quickly added to circulatory solution. After that, the flow rate was adjusted to 2 mL·min^− 1, and the samples were taken at 10 min intervals for 4 h. In addition, in order to study the effects of different pH on intestinal absorption of TSG, the pH of the blank intestinal circulation solution was adjusted to 5.4 and 6.4, respectively. Finally, the experimental animals were euthanized by the method of rapid decapitation when the experiment was over. The procedures and precautions for sacrifice were the same as previously described.
as §1, §2, §3

[3] = set-up: method as in PMID 23371758; conditions: rats plasma, two-compartment model; cited from earlier work
[4] = In situ gastric perfusion of TSG in rats; format: in vivo; conditions: rat
Procedure: According to the Chinese Pharmacopoeia, the artificial gastric juice without pepsin is configured under the time limit inspection method of disintegration.
The appropriate amount of TSG was accurately weighed, and the gastric perfusate was prepared at a concentration of 10, 30 and 60 μg·mL^− 1 using artificial gastric juice.
24 SD rats, half male and half female, were fasted for 12 h but permitted to drink water freely before surgery. Rats were anesthetized by intraperitoneal injection of 25% urethane ([…]) and placed in a supine position on the operating table. The abdominal cavity was opened along the midline of the abdomen, then the incision was made at the duodenum and the ileum. The polyethylene tubes were carefully inserted at both sides of the segment and ligatured with a sterile surgical line. […]
1 mL sample was mixed with equal amount of methanol, filtered through a membrane filter (0.45 μm pore size), and centrifuged at 12000 r·min^− 1 for 10 min. […] TSG was detected at wavelength of 320 nm and phenol red was detected at wavelength of 430 nm. […] With the sampling time t as independent variable and lnX as dependent variable, the absorption rate constant Ka was determined from the slope of the straight line. The drug absorption percentage were calculated by the ratio of the change value of the remaining dose of t (h) to the amount of the remaining drug at time 0.

[5] = tested on: P-gp; assay: Western blotting, expression of P-gp in Caco-2 cells after TSG; format: cell-based; conditions: TSG 10, 30 and 60 μg·mL^− 1, 4 h; significant at 60 μg·mL^− 1 (p < 0.05)
Procedure: (§4) When Caco-2 cells grew to 80–90%, the cell were treated with different concentrations (10, 30 and 60 μg·mL^− 1) of TSG and blank medium solution (blank control group). […] The concentration of total proteins was detected by BCA kit, and the supernatant were mix with SDS-PAGE sample buffer after protein quantification, denatured on a heater for 5 min and stored.
(§5) The total proteins were electrophoresed in 10% SDS-PAGE gel and then transferred to PVDF membranes by wet process to block with 5% skim milk for 2 h at room temperature. Membranes were incubated overnight with the following primary antibodies Anti-P glycoprotein antibody (1:2000), Anti-MRP2 antibody (1:500), and GAPDH polyclonal antibody. After that, the membranes were washed with 0.1% TBST for 3 times and 10 min each time and incubated with corresponding secondary antibody (1:5000) for 1 h at room temperature. The OD density values of bands were analyzed using gel imaging and analysis system.

[6] = tested on: Caco-2 cell monolayer; assay: Bidirectional transport across Caco-2 cell monolayer (Papp); format: in vitro ADME
Procedure: Then, the supernatant was analyzed by HPLC. […] The injected sample volume was 5 μL. TSG was detected at wavelength of 320 nm.
(§6) (1): 1 Papp=dQ/dt×1/A×1/C0

[7] = tested on: MRP2; assay: Western blotting, expression of MRP2 in Caco-2 cells after TSG; format: cell-based; conditions: TSG 10, 30 and 60 μg·mL^− 1, 4 h; significant at 30 and 60 μg·mL^− 1 (p < 0.05)
Procedure: as §4, §5

[8] = tested on: Caco-2 cells; assay: MTT cytotoxicity of TSG for Caco-2 cells; format: cell-based
Procedure: (§7) MTT assay was firstly used to investigate the effect of TSG with different concentrations on Caco-2 cells vitality. Briefly, Caco-2 cells were seeded in 96-wells plates at a density of 1 × 10^4 cells per well and placed in a 5% carbon dioxide incubator. After 48 h incubation, the cells were treated with increasing concentrations of TSG (0.75–240 μg·mL^− 1) and DMEM (containing 1%FBS) as a negative control. After 5 h of incubation, 20 μL of 5 mg·mL^− 1 MTT was added to each well, and the plate was incubated at 37 °C for 4 h. Then 150 μL of DMSO was added to each well after the supernatant was discarded. Absorbance was measured at a wavelength of 570 nm.

[9] = MTT cytotoxicity of TSG for Caco-2 cells; format: cell-based; conditions: human; Caco-2 cells, 60 μg·mL^− 1 TSG, 5 h, MTT; read-out: cell viability
Procedure: as §7

[10] = tested on: MRP2; assay: Effect of MRP2 inhibitor on TSG transport across Caco-2 cell monolayer; format: in vitro ADME
Procedure: The effect of efflux protein inhibitors on the intestinal absorption of TSG was studied based on Caco-2 cell monolayer model. […] Before the administration, the inhibitor was added to AP side and BL side, and the plate was placed in an incubator. After 30 min, the inhibitor solution was replaced with TSG solution at concentration of 30 μg·mL^− 1 to inspect the effect of efflux proteins on TSG.
Then, the supernatant was analyzed by HPLC. HPLC separation was performed on Eclipse Plus C18 column (4.6 mm × 250 mm, 5 μm) at 30 °C. The mobile phase consisted of acetonitrile and 0.1% formic acid water (25:75) and the velocity of flow is 1 mL·min^− 1. The injected sample volume was 5 μL. TSG was detected at wavelength of 320 nm.
as §6

[11] = inhibitor 25 μg·mL^− 1, p < 0.05, rat
[12] = inhibitor 5 μg·mL^− 1, TSG 30 μg·mL^− 1, compared with TSG alone
[13] = inhibitor 25 μg·mL^− 1, TSG 30 μg·mL^− 1, compared with TSG alone

T1 sequence (Q63120 whole entry, the tested form may be a part): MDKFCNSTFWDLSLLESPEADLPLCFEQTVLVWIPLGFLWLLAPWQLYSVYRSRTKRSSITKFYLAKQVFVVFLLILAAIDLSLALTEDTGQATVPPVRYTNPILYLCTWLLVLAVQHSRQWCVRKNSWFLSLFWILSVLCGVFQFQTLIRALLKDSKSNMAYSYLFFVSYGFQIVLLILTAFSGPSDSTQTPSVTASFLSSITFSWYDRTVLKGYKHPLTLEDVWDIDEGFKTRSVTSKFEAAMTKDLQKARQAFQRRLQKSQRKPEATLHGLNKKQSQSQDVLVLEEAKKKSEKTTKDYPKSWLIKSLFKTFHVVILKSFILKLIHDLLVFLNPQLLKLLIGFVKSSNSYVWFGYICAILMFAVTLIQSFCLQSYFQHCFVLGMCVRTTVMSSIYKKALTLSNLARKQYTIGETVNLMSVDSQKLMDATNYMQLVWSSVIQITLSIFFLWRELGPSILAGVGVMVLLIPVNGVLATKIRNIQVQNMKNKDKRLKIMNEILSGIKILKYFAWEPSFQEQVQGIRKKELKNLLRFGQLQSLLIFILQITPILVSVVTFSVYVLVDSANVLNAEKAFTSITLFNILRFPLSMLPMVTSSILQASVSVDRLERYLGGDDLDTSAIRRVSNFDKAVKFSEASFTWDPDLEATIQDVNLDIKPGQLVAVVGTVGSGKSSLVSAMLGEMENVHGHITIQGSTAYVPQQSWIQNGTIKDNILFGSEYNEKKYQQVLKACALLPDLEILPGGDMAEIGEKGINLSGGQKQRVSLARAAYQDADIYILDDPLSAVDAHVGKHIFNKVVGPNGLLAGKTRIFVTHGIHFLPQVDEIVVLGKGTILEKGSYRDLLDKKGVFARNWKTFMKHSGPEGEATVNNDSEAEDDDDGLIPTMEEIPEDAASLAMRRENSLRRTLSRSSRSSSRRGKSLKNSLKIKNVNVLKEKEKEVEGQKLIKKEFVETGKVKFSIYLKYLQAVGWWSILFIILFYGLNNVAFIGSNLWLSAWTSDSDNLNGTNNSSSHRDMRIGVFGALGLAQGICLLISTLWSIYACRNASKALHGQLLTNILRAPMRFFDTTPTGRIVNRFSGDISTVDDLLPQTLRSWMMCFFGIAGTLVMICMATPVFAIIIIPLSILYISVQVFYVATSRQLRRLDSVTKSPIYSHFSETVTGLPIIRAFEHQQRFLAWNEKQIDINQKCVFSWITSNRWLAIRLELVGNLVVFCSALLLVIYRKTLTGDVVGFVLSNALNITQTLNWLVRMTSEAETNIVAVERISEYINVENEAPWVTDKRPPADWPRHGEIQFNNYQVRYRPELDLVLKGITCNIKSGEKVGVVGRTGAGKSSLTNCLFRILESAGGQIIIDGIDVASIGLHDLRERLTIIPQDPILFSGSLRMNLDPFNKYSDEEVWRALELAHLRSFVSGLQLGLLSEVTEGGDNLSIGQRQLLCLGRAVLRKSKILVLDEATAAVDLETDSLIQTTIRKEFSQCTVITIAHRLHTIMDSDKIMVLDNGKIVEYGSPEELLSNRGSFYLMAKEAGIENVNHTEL

With `OC[C@H]1O[C@@H](Oc2c(O)cc(O)cc2/C=C/c2ccc(O)cc2)[C@H](O)[C@@H](O)[C@@H]1O` [TSG, 2,3,5,4′-tetrahydroxystilbene-2-O-β-D-glucoside] the “substrate of efflux protein MRP2” value ([1]; conclusion from in situ transport data) was “may be the substrate”, the “absorption rate in the intestine” value ([2]; in situ perfusion, rat) was “lower than 20%” and the “Ka between pH 6.4 and 7.4” value ([2]; rat intestinal perfusion, p < 0.01) was “significant increase”. The “PA value of pH 7.4 versus pH 6.4 and 5.4” value ([2]; rat intestinal perfusion, p < 0.05) was “significantly different”, the “absorption rate constant (Ka) at 10 μg·mL^− 1 versus 30 and 60 μg·mL^− 1” value ([2]; rat small intestine, p < 0.05) was “significantly greater” and the “percentage of absorption (PA) at 10 μg·mL^− 1 versus 30 and 60 μg·mL^− 1” value ([2]; rat small intestine, p < 0.05) was “significantly greater”. The “absorption half-life (t1/2Ka)” value [3] was 14.80 min, the “maximal concentration (Cmax)” value [3] was 5.70 μg·mL^− 1 and the absorption in stomach ([4]; TSG 10, 30 and 60 μg·mL^− 1) was “well absorbed”. The “absorption in stomach versus concentration” value ([4]; TSG 10, 30 and 60 μg·mL^− 1, p < 0.05) was “increased significantly with concentration”, the “expression of P-gp in Caco-2 cells” value [5] was “increased with concentration” and the “bilateral (AP-BL and BL-AP) Papp versus concentration” value ([6]; 10, 30 and 60 μg·mL^− 1) was “decreased substantially with increasing concentration”. The “absorption class from Papp” value ([6]; Caco-2 cell monolayer) was “moderately absorbed drug”, the “Papp values of bidirectional transport versus pH” value ([6]; TSG 30 μg·mL^− 1, pH 7.4, 6.4, 5.4) was “increased significantly with the decrease of pH value” and the “time at which bilateral Papp values reached the maximum” value ([6]; after administration, 10, 30 and 60 μg·mL^− 1) was 1 h. The “expression of MRP2 in cells” value [7] was “decreased”, the cell viability ([8]; Caco-2 cells, TSG more than 60 μg·mL^− 1, MTT) was “significantly decreased” and the “toxicity on Caco-2 cells” value ([8]; TSG 0.75–60 μg·mL^− 1, MTT) was “basically no toxicity”. The viability at 5 h, 60 μg·mL^-1 [9] was over 90%.
In the case of `CCCN(CCC)S(=O)(=O)c1ccc(C(=O)O)cc1` [probenecid], the “Ka values of TSG in presence of inhibitor” value [1, 11] is reported as “significantly enhanced”, the “PA values of TSG in presence of inhibitor” value [1, 11] is reported as “significantly enhanced” and the “increase of Papp values of TSG, AP-BL side” value [10, 12] is reported as about 2.22 times. For the same molecule, the “increase of Papp values of TSG, BL-AP side” value [10, 12] was about 1.82 times, the “increase of Papp values of TSG, AP-BL side” value [10, 13] was about 3.02 times and the “increase of Papp values of TSG, BL-AP side” value [10, 13] was about 1.91 times.
